Laboratory results as given in the supplement of paper PMC10307832.

What was measured:
Test in all cases: relative viability (nuclei count vs DMSO), 5 days (fraction); higher = more cells survive
[1] = compound: CC1=NN=C(O1)C2=NN=C(C=C2)N3CCC(CC3)OC4=C(C=CC(=C4)F)Cl + N=C(N)NC(=N)NCCc1ccccc1 [Phenformin] (partner 250 µM)
Outline: (§1)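 Lung cancer cell lines, seeded in 1536-well plates, were treated the following day by pin tool with a single drug or with five library-drug doses (not always all listed) in √10 steps on top of a fixed anchor-drug dose. Cells were fixed and nuclei stained in one step after 5 days, and nuclei were counted. Relative viability is the nuclei count for treated wells divided by that for vehicle wells, reported as medians of duplicate plates.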

[2] = compound: CC1=NN=C(O1)C2=NN=C(C=C2)N3CCC(CC3)OC4=C(C=CC(=C4)F)Cl + CCNC(=O)c1noc(-c2cc(C(C)C)c(O)cc2O)c1-c1ccc(CN2CCOCC2)cc1 [Luminespib] (partner 0.01 µM)
Outline: as §1

[3] = compound: CC(C)C[C@@H](C(=O)N[C@H](C(=O)OC1CCCC1)c1ccccc1)[C@H](O)C(=O)NO [Tosedostat] + CS(=O)(=O)CCNCc1ccc(-c2ccc3ncnc(Nc4ccc(OCc5cccc(F)c5)c(Cl)c4)c3c2)o1 [Lapatinib] (partner 2 µM)
Outline: as §1

[4] = compound: CC1=NN=C(O1)C2=NN=C(C=C2)N3CCC(CC3)OC4=C(C=CC(=C4)F)Cl + CC(=O)c1c(C)c2cnc(Nc3ccc(N4CCNCC4)cn3)nc2n(C2CCCC2)c1=O [Palbociclib] (partner 0.5 µM)
Outline: as §1

Cell Line	relative viability ([1]; first compound 0.253 µM)	relative viability ([1]; first compound 0.8 µM)	relative viability ([1]; first compound 2.53 µM)	relative viability ([1]; first compound 8 µM)	relative viability ([2]; first compound 0.253 µM)	relative viability ([2]; first compound 0.8 µM)	relative viability ([2]; first compound 2.53 µM)	relative viability ([2]; first compound 8 µM)	relative viability ([3]; first compound 0.02 µM)	relative viability ([3]; first compound 0.06325 µM)	relative viability ([3]; first compound 0.2 µM)	relative viability ([3]; first compound 0.6325 µM)	relative viability ([3]; first compound 2 µM)	relative viability ([4]; first compound 0.253 µM)	relative viability ([4]; first compound 0.8 µM)	relative viability ([4]; first compound 2.53 µM)	relative viability ([4]; first compound 8 µM)
BEN	0.25	0.265	0.267	0.301	0.47	0.459	0.312	0.18	0.924	0.936	0.68	0.987	0.702	0.452	0.448	0.487	0.52
EKVX	0.211	0.223	0.236	0.227	0.447	0.362	0.331	0.32	0.19	0.233	0.418	0.218	0.227	0.282	0.257	0.286	0.292
ABC-1	0.197	0.224	0.291	0.276	0.35	0.362	0.207	0.262	1.34	1.12	1.2	1.19	1.23	0.411	0.271	0.287	0.28
PC-3 [JPC-3]	0.433	0.406	0.426	0.412	0.674	0.686	0.611	0.603	0.445	0.453	0.432	0.452	0.428	0.507	0.538	0.537	0.551
NCI-H23	0.829		0.729	0.709	0.222	0.199	0.229	0.189	1.23	1.06	0.958	1	0.628	0.44	0.442	0.466	0.454
NCI-H1793	0.402	0.385	0.37	0.315	0.132	0.348	0.166	0.405	0.579	0.73	0.874	0.82	0.618	0.304	0.314	0.342	0.301
LC-2-ad	0.496	0.489	0.51	0.472	0.567	0.488	0.544	0.483	1.02	0.981	0.993	0.909	1.04	0.215	0.216	0.239	0.202
COR-L 105	0.513	0.475	0.568	0.642	0.622	0.812	0.691	0.625	0.415	0.412	0.326	0.416	0.358	0.403	0.477	0.405	0.495
H3255	0.372	0.316	0.354	0.398	0.82	0.737	0.727	0.66	0.262	0.227	0.224	0.255	0.253	0.296	0.305	0.309	0.321
NCI-H2087	0.425	0.267	0.387	0.341	0.17	0.144	0.151	0.164	1.08	1.1	1.1	0.907	0.844	0.239	0.262	0.21	0.195
NCI-H1915	0.377	0.287	0.332	0.243	0.615	0.393	0.503	0.312	1.08	0.938	0.947	0.953	0.956	0.385	0.291	0.319	0.266
HOP-62	0.592	0.352	0.411	0.349	0.63	0.638	0.697	0.634	1.08	0.935	1.08	0.891	0.983	0.351	0.356	0.265	0.212
LU99A	0.885	0.822	0.821	0.71	0.224	0.227	0.246	0.199	1.02	1.08	0.76	0.813	0.869	0.402	0.484	0.443	0.418
NCI-H3122	0.324	0.282	0.253	0.275	0.0576	0.108	0.0895	0.0702	1.09	0.99	1.07	1.07	1.04	0.191	0.201	0.183	0.221
NCI-H1651	0.367	0.487	0.368	0.325	0.738	0.749	0.685	0.692	0.883	0.81	0.77	0.816	0.697	0.337	0.387	0.331	0.346
NCI-H661	0.282	0.308	0.244	0.277	0.785	0.751	0.714	0.549	0.428	0.479	0.449	0.591	0.425	0.354	0.38	0.355	0.302
NCI-H1755	0.567	0.565	0.523	0.56	0.376	0.337	0.354	0.418	1.1	1.08	1.09	1.1	1.13	0.334	0.451	0.464	0.4

Cell Line	relative viability ([1]; first compound 0.253 µM)	relative viability ([1]; first compound 0.8 µM)	relative viability ([1]; first compound 2.53 µM)	relative viability ([1]; first compound 8 µM)	relative viability ([2]; first compound 0.253 µM)	relative viability ([2]; first compound 0.8 µM)	relative viability ([2]; first compound 2.53 µM)	relative viability ([2]; first compound 8 µM)	relative viability ([3]; first compound 0.02 µM)	relative viability ([3]; first compound 0.06325 µM)	relative viability ([3]; first compound 0.2 µM)	relative viability ([3]; first compound 0.6325 µM)	relative viability ([3]; first compound 2 µM)	relative viability ([4]; first compound 0.253 µM)	relative viability ([4]; first compound 0.8 µM)	relative viability ([4]; first compound 2.53 µM)	relative viability ([4]; first compound 8 µM)
NCI-H1734	0.429	0.32	0.405	0.395	0.237	0.206	0.249	0.189	1.23	1.11	0.997	1.01	0.763	0.344	0.334	0.345	0.324
NCI-H1993	0.553	0.481	0.651	0.509	0.636	0.829	0.74	0.725	0.904	0.997	0.857	0.87	0.734	0.523	0.579	0.644	0.603
RERF-LC-KJ	0.389	0.434	0.466	0.392	0.75	0.647	0.612	0.673	0.824	0.908	0.855	0.821	0.879	0.617	0.667	0.633	0.688
HARA	0.306	0.211	0.334	0.266	0.234	0.204	0.202	0.184	0.756	0.797	0.611	0.775	0.574	0.233	0.25	0.235	0.222
NCI-H838	0.588	0.434	0.515	0.504	0.257	0.255	0.348	0.226	0.93	0.914	0.961	0.904	1.24	0.192	0.24	0.222	0.196
NCI-H1666	0.509	0.57	0.555	0.584	0.537	0.504	0.479	0.444	0.841	0.853	0.669	0.735	0.618	0.632	0.684	0.651	0.627
NCI-H322M	0.759	0.742	0.846	0.731	0.815	0.796	0.726	0.648	0.665	0.577	0.542	0.55	0.446	0.471	0.509	0.469	0.492
LCLC-97TM1	0.501	0.396	0.427	0.437	0.394	0.364	0.336	0.346	0.951			0.641	0.766	0.184		0.164	0.19
EPLC-272H	0.315	0.279	0.309	0.294	0.226	0.167	0.313	0.267	1.03	0.944	0.637	0.755	0.621	0.281	0.314	0.277	0.34
NCI-H2023	0.401	0.362	0.387	0.324	0.376	0.389	0.336	0.253	0.94	0.953	0.795	0.457	0.753	0.28	0.277	0.233	0.199
NCI-H460	0.298	0.309	0.291	0.258	0.0224	0.0328	0.0243	0.0233	1.13	0.915	1.07	0.921	0.999	0.0613	0.0812	0.0833	0.0883
NCI-H647	0.441	0.446	0.408	0.2	0.171	0.128	0.16	0.263	1.17	1.11	1.07	0.926	0.969	0.168	0.201	0.155	0.0745
NCI-H2170	0.336	0.291	0.355	0.323	0.468	0.475	0.353	0.311	0.25	0.258	0.273	0.289	0.276	0.196	0.22	0.22	0.175
NCI-H1395	0.453	0.398	0.439	0.429	0.431	0.725	0.678	0.82	1.1	0.944	0.877	0.862	0.674	0.562	0.592	0.599	0.626
NCI-H358	0.369	0.304	0.359	0.305	0.287	0.176	0.177	0.207	0.514	0.454	0.374	0.407	0.456	0.137	0.12	0.119	0.133
SW 1573	0.371	0.329	0.351	0.363	0.184	0.204	0.264	0.2	1.18	1.12	1.19	1.05	1.05	0.314	0.372	0.255	0.262
CAL-12T	0.585	0.519	0.488	0.416	0.362	0.342	0.501	0.415	0.545	0.7	0.728	0.669	0.678	0.441	0.485	0.43	0.336
